The source of these data is patent US8940911B2, “Squarylated lactones inhibitors for bacterial biofilm formation” (Syracuse University, priority 2012, dated 2015).

Experiment [1] has as its system E. coli RP437. Kind of experiment: Static biofilm inhibition assay (crystal violet, 96-well plate). The experiment is classed as cell-based, Escherichia coli. The source says:
A primary objective was to test the ability of SHLs to inhibit biofilm formation against E. coli RP437. […] Viable controls were required that would allow us to measure and compare the activity of SHLs against known biofilm inhibitors and naturally occurring AI-1 signal molecules. […] The activity of this class of molecule is presumably similar or even marginally higher than that of brominated furanone (BF8 48) (56%).
For the present invention, the E. coli RP437 biofilms were allowed to develop in a 96-well plate in the absence or presence of SHLs. After 24 hours, the planktonic bacteria and remaining media were removed and the crystal violet was introduced in the wells. The bacterial biofilm being formed at the air/liquid interface on the inside wall of the well is stained readily by crystal violet. After removing the excess crystal violet and repeatedly washing the wells with water, followed by ethanol solubilization of the dye, allows quantification of the amount of biofilm by spectrophotometry (OD600). […] We believe that the observed biofilm inhibition activity cannot be directly attributed to any predominant structural feature inherent in the SHLs. Rather, the small deviations in the structures of the SHLs and their effect on biofilm formation could be a result of the nature of non-covalent forces that arise during SHLs presumed binding within the receptor active site.
An overnight culture of E. coli RP437 grown in LB media (OD600 of 1.0) containing streptomycin (10 μg/mL) was subsequently sub-cultured to an OD600 of 0.04 (1:100 dilution with LB media). To each well in the solvent resistant polypropylene or polystyrene-based 96-well microtiter plates were added 200 μL of the sub-cultured bacteria respectively. To each of the wells containing the bacterial cultures varying concentrations of the synthetic molecules was added and the contents in each well were gently mixed. Control wells comprised of untreated bacterial culture (four replicates) and the LB media (four replicates). The microtiter plates were then covered and wrapped in a Saran wrap and allowed to incubate at 37° C. for 24 hours without shaking. After that time, the microbial medium in each well was discarded and the remaining biofilm that was formed during incubation was stained with 225 μL of a 0.1% crystal violet solution and allowed to incubate at room temperature for 30 minutes. After the incubation period, the crystal violet was discarded and the wells were gently washed twice with water (230-250 μL) and allowed to air dry for 15-20 minutes. For the purpose of solubilizing the remaining crystal violet that had stained the biofilm present in the interior of the 96-well plates, a 250 μL solution of 95% ethanol was used. After the addition of 95% ethanol, the contents of each well were mixed thoroughly and allowed to sit for 15-20 minutes. Finally, the biofilm formed was quantified by transferring 100 μL of the ethanol solution into a fresh polystyrene microtiter dish that was subsequently read by an absorbance plate reader (A600). After elimination of background absorbance, the percentage inhibition was calculated by dividing the amount of absorbed crystal violet in wells that contained the synthetic compound by the amount of absorbed crystal violet in wells that contained bacteria only (control). Biofilm assays for each synthetic compound were repeated two to three times and each concentration considered for inhibition studies were tested over four replicates.

Experiment [2] deals with E. coli RP437. Kind of experiment: Growth studies (OD600) of planktonic E. coli. The experiment is classed as cell-based, Escherichia coli. To be noted: for toxicity / growth inhibition of E. coli (in words): OD600 over 24 h, 1-300 μM as stated in the sentence. The method, then:
The toxicity of the SHLs and BF8 at a range of concentrations (1, 10, 25, 50, 100, 200 and 300 μM) was evaluated against E. coli RP437 to determine whether these small molecules elicit their inhibition effect through a toxic mechanism. […] The effect induced by SHLs at 200 μM, the inhibitory concentration at which maximum biofilm inhibition occurs was interesting to observe.
The toxicity profile of BF8 48 would in turn allow a comparison to the library of SHLs. Parallel growth studies using BF8 48 and vinyl-SHL 3 treated and untreated control cultures in 96-well plates were performed. Inhibitor concentrations used during growth studies ranged from […]-300 μM.
An overnight culture of E. coli RP437 grown in LB media (OD600 of 1.0) containing streptomycin (10 μg/mL) was subsequently sub-cultured to an OD600 of 0.04 (1:100 dilution with LB media). To each well in the solvent resistant polypropylene or polystyrene-based 96-well microtiter plates were added varying concentrations of the synthetic molecules respectively (1, 10, 25, 50, 100, 200 and 300 μM). Further, to each of the wells containing the known concentrations of synthetic molecules was added 200 μL of the sub-cultured bacteria and the contents in each well were gently mixed. Control wells comprised of untreated bacterial culture (four replicates) and the LB media (four replicates). The microtiter plates were then covered and allowed to incubate at 37° C. for 24 hours with shaking at 200 rpm. The OD600 values in each well was measured at 0, 2, 4, 6, 8, 12, 24 h after inoculation using Biotek ELx800 absorbance plate reader using Gen5™ data analysis software. For each synthetic compound, the growth experiments were repeated twice and each of the concentrations was tested over four replicates.

The mark [3] stands for this setting: E. coli RP437, 200 μM, 24 h, crystal violet.

Turning to `CC1=C(Br)/C(=C/Br)OC1=O` [BF8 48, reference compound], the “inhibition of biofilm formation” value in the experiment on E. coli RP437 [1] (setting [3]) worked out at 56%. Also, the “toxicity / growth inhibition of E. coli (in words)” value (“toxicity / growth inhibition” for short) with E. coli RP437 [2] is given as “marked attenuation of E. coli growth”.
Take `CCCCOc1c(NC2CCCC2)c(=O)c1=O` [butoxy-SCPA 46]: in the experiment with E. coli RP437 [1] (setting [3]), the “inhibition of biofilm formation” value stood at 42%. The “toxicity / growth inhibition” value with E. coli RP437 [2] is reported as “no inhibition of E. coli growth up to 300 μM”.
On to `C=Cc1c(NC2CCOC2=O)c(=O)c1=O` (stereo not drawn) [vinyl-SHL 3], for which the “biofilm inhibition (in words)” value in the experiment with E. coli RP437 [1] (setting [3]) is given as “greatest inhibition of biofilm”. The “biofilm inhibition values used in the ratio 26/57×100” value in the experiment on E. coli RP437 [1] (E. coli RP437, unit not given) worked out at 57. Besides, the “E. coli growth relative to untreated sample” value in the experiment with E. coli RP437 [2] (200 μM, at 4 h, OD600) stood at 77%. For the same compound, the “toxicity / growth inhibition” value was “less toxicity compared to BF8 48” in the experiment on E. coli RP437 [2] and “after 8 h, E. coli RP437 growth reverts back normally” in the experiment on E. coli RP437 [2] (listed as Vinyl-SHL 3).
